This is an account of results in US20210046139A1, “VEGETATION WATERS AND USES THEREOF” (FATTORIA LA VIALLA DI GIANNI, ANTONIO E BANDINO LO FRANCO - …, priority 2018, published 2021).

The structures appear in SMILES notation.

Test [1] has as its system STZ diabetic rats. Description: Thiobarbituric acid reactive substances (TBARS) in plasma and kidney. Format: in vivo, Sprague-Dawley rats. The conditions noted are these: 50 mg/kg/day, 5 weeks, mean ± S.E. An excerpt:
A well-established model of streptozotocin (STZ)-induced diabetes in rats was used. Streptozotocin is a glucosamine derivative of nitrosurea which selectively destroys the β cells of the pancreatic islets and causes the development of diabetes with hyperglycemia and glycosuria. The model shares a series of characteristics with human diabetic complications at both a functional level and a biochemical level, such as, for example, a reduced nervous conduction, loss of small-diameter sensory nerve fibers in the skin, reduction in Na+ and K+-ATPase activity and early alterations of the thermal and mechanical nociceptive thresholds. In this study, diabetes was induced in 24 rats with a single intraperitoneal injection of 60 mg/kg of STZ dissolved in a sodium citrate buffer (pH 4.5). 24 rats injected only with the vehicle were used as non-diabetic controls. Hyperglycemia was confirmed by measuring glycosuria 72 hours after the injection of STZ using Keto-Diabur strips (KD-5000; Roche Diagnostics Spa, Italy). Only the animals with glycosuria >5% were classified as diabetic and included in the study. […] The levels of TBARS were determined as an indicator of the production of reactive oxygen species. […] The upper phase was measured using fluorimetry, (Infinite M200; Tecan, Milan, Italy) at an excitation wavelength of 532 nm and emission wavelength of 553 nm. […]

For test [2], the system named is STZ diabetic rats. Put plainly: Motor and sensory nerve conduction velocity (tail, sciatic nerve). Format: in vivo, Sprague-Dawley rats. The conditions noted are these: end of administration (week 12), mean ± S.E.; for Conduction of sciatic nerve: sciatic motor NCV; for Sensitivity of sciatic nerve: sciatic sensory NCV; for Conduction of tail: tail motor NCV; for Sensitivity of tail: tail sensory NCV. From the text: A well-established model of streptozotocin (STZ)-induced diabetes in rats was used. Streptozotocin is a glucosamine derivative of nitrosurea which selectively destroys the β cells of the pancreatic islets and causes the development of diabetes with hyperglycemia and glycosuria. The model shares a series of characteristics with human diabetic complications at both a functional level and a biochemical level, such as, for example, a reduced nervous conduction, loss of small-diameter sensory nerve fibers in the skin, reduction in Na+ and K+-ATPase activity and early alterations of the thermal and mechanical nociceptive thresholds. In this study, diabetes was induced in 24 rats with a single intraperitoneal injection of 60 mg/kg of STZ dissolved in a sodium citrate buffer (pH 4.5). 24 rats injected only with the vehicle were used as non-diabetic controls. Hyperglycemia was confirmed by measuring glycosuria 72 hours after the injection of STZ using Keto-Diabur strips (KD-5000; Roche Diagnostics Spa, Italy). Only the animals with glycosuria >5% were classified as diabetic and included in the study. […] The animals were then randomized to receive the concentrate of the invention at an HT equivalent dose of 50 mg/kg/day or 50 mg/kg/day of pure HT in drinking water, according to the following treatment groups: The electrophysiological studies were performed using a portable electromyograph (Alpine Biomed ApS DK-2740, Denmark). The test on sciatic nerve conduction was performed by stimulating the sciatic nerve in the Achilles tendons and in the hollow above the sciatic nerve at the point of attachment of the tail with a single 2.2 ms supramaximal pulse using a bipolar electrode. A measurement of the motor action potential (CMAP) was obtained by placing the active electrode in subcutaneous tissue, in the first interosseous muscle of a toe of the hind paw, and the reference electrode in the fourth interosseous muscle of the same paw. The motor conduction velocity was calculated by subtracting the distal value from the proximal value taking the latency of the first negative peak of the proximal CMAP, measured in milliseconds, and the difference was […] the distance between the two stimulating electrodes, measured in millimeters. The sensory conduction velocity was determined using the plantar nerve. The sensory nerve action potential (SNAP) of the plantar nerve was measured by placing the recording electrode (needle) in subcutaneous tissue at the level of the […] next to the medial malleolus and the reference electrode proximally at about 1 cm. Circular stimulation electrodes were placed in the middle of the three middle toes of the hind paw, and stimulation was performed with a square pulse wave lasting 0.05 ms, with a barely supramaximal current intensity stimulus. The sensory conduction velocity was calculated by measuring the latency at the negative deviation of the peak potential and the distance between the stimulation electrode and the recording electrode. The motor and sensory conduction velocities are expressed as meters per second. The tail motor and sensory conduction test requires that the sensory nerve of the tail be stimulated by inserting the cathode 2 cm from the tip of the tail and the anode at 1 cm distally, using a square wave pulse lasting 0.05-ms at a supramaximal intensity. The SNAPs were recorded by inserting the active electrode 5 cm from the cathode and the reference electrode at 1 cm more proximally. The sensory nerve conduction velocity was calculated by measuring the latency at the peak of the first negative deflection and the distance between the stimulating and recording electrodes. The tail motor nerve conduction was obtained using a bipolar recording configuration. The active electrode was positioned 2 cm from the tip of the tail and the reference electrode at 1 cm distally. The motor nerve of the tail was initially stimulated at 5 cm proximally from the active recording electrode and, subsequently, proximally at 10 cm. […]

Setting [3] is: non-diabetic control rats (CTRL).

In turn, `OCCc1ccc(O)c(O)c1` [HT, hydroxytyrosol] registered a PLASMA TBARS with STZ diabetic rats [1] (STZ diabetic rats) of 12.1 ± 1.2 nmol/mL. Besides, in the test on STZ diabetic rats [1] (setting [3]), the PLASMA TBARS worked out at 4.3 ± 0.5 nmol/mL. Besides, in the test on STZ diabetic rats [2] (STZ diabetic rats), the “Conduction of sciatic nerve” value was found to be 40.3 ± 0.7 m/sec, the “Sensitivity of sciatic nerve” value is on record as 33.7 ± 0.9 m/sec, the Conduction of tail came out at 37.4 ± 0.9 m/sec and the Sensitivity of tail was 30.8 ± 0.8 m/sec. Also, in the test with STZ diabetic rats [2] (setting [3]), the “Conduction of sciatic nerve” value was found to be 46.5 ± 1.5 m/sec, the “Sensitivity of sciatic nerve” value is listed as 39.0 ± 0.9 m/sec, the Conduction of tail turned out to be 36.1 ± 1.7 m/sec and the Sensitivity of tail came to 34.7 ± 1.3 m/sec.
